Results from patent US20200316062A1, “COMBINATIONS COMPRISING HISTONE DEACETYLASE INHIBITORS” (Karus Therapeutics Limited, priority 2016, published 2020).

Experiments:
[1] = Clinical signs and weight in the tumour growth delay study
Description: (§1) Male SCID mice were subcutaneously implanted with RPM18226 multiple myeloma cells. Once tumours were established (volume of ˜130 mm) treatment was commenced.
(§2) Animals were housed in IVC cages (5 per cage) with individual mice identified by tail mark. All animals were allowed free access to a standard certified commercial diet and sanitised water during the study.
(§3) RPMI cells (1×10^7 in matrigel) were implanted subcutaneously into the rear dorsum of male SCID mice using a 25-gauge needle. When tumours were 100-150 mm^3 animals were randomly assigned to treatment groups.

RPMI8226 tumours = experiment: Tumour growth delay study in male SCID mice bearing RPMI8226 tumours; assay type: in vivo
Description: as §1, §2, §3

[2] = tested on: PD-L1-expressing HT29 colorectal adenocarcinoma cells, primary stromal fibroblasts and PBMCs; experiment: Tumour microenvironment (TME) model system, study KRS018-01-b (DiscoverX); assay type: cell-based; conditions: 2.5 to 10 μM; SAg stimulation 48 h; dose-dependent
Description: Test compounds dissolved in DMSO were profiled in a commercially-available tumour microenvironment (TME) model system consisting of PD-L1-expressing HT29 colorectal adenocarcinoma cells, primary stromal fibroblasts and PBMCs in which immune cel responses are suppressed by the presence of the cancer cells. Co-cultured cells were exposed to 2.5, 5, 10, 20 μM of test compound or DMSO as a control and stimulated with SAg for 48 h. The activity profile in the co-culture system was determined using ELISA endpoint assays to detect modulation of protein markers relevant to immune tolerance, inflammation, angiogenesis and matrix remodelling, and sulforhodamine B (SRB) and alamar blue assays to measure the viability of adherent colorectal adenocarcinoma cells and fibroblasts, and PBMCs, respectively.

acetylated tubulin = experiment: Western blot analysis of tumour tissue; assay type: in vivo, male SCID mice; conditions: tumour tissue removed from treated animals
Human HDAC1 = molecular target: T1, Human HDAC1 (Homo sapiens, UniProt Q13547); experiment: HDAC biochemical assay, acetylated AMC-labeled peptide substrate; conditions: read-out: IC50 (nM) HDAC 1
T1 construct: full length with C-terminal His-tag and C-terminal FLAG-tag; His-tag (C); FLAG-tag (C); made in house
Description: Activity against all zinc-dependent HDACs 1 to 11 was assessed by using an acetylated AMC-labeled peptide substrate. […] All assays were based on the AMC-labeled substrate and developer combination.
(§4) The protocol involved a two-step reaction: first, the substrate with the acetylated lysine side chain is incubated with a sample containing HDAC activity, to produce the deacetylated products, which are then digested in the second step by the addition of developer to produce the fluorescent signal proportional to the amount of deacetylated substrates.
Human HDAC1 (GenBank Accession No. NM_004964), full length with C-terminal His-tag and C-terminal FLAG-tag, MW=56 kDa, expressed in baculovirus expression system.
(§5) Before use, 1 mg/mL BSA and DMSO are added.
Incubate for 2 hours at 30° C.
HDAC1: 0.3 ng/ul HDAC1 and 50 μM HDAC substrate are in the reaction buffer with 1% DMSO final. Incubate for 1 hour at 30° C.
(§6) Stage 1: Deacetylation of substrate by incubation of HDAC enzymes with compounds
(§7) Stage 2: Development by addition of Developer to digest the deacetylated substrate, and generate the fluorescent color; Detection: 360/460 Ex/Em

Recombinant human HDAC6 = molecular target: T2, Recombinant human HDAC6 (Homo sapiens, UniProt Q9UBN7); experiment: as above; conditions: read-out: IC50 (nM) HDAC 6
T2 construct: full length, MW=159 kDa; GST (N); made in house; host or cells: Sf9 insect cells (baculovirus)
T2 sequence (Q9UBN7 1-1215): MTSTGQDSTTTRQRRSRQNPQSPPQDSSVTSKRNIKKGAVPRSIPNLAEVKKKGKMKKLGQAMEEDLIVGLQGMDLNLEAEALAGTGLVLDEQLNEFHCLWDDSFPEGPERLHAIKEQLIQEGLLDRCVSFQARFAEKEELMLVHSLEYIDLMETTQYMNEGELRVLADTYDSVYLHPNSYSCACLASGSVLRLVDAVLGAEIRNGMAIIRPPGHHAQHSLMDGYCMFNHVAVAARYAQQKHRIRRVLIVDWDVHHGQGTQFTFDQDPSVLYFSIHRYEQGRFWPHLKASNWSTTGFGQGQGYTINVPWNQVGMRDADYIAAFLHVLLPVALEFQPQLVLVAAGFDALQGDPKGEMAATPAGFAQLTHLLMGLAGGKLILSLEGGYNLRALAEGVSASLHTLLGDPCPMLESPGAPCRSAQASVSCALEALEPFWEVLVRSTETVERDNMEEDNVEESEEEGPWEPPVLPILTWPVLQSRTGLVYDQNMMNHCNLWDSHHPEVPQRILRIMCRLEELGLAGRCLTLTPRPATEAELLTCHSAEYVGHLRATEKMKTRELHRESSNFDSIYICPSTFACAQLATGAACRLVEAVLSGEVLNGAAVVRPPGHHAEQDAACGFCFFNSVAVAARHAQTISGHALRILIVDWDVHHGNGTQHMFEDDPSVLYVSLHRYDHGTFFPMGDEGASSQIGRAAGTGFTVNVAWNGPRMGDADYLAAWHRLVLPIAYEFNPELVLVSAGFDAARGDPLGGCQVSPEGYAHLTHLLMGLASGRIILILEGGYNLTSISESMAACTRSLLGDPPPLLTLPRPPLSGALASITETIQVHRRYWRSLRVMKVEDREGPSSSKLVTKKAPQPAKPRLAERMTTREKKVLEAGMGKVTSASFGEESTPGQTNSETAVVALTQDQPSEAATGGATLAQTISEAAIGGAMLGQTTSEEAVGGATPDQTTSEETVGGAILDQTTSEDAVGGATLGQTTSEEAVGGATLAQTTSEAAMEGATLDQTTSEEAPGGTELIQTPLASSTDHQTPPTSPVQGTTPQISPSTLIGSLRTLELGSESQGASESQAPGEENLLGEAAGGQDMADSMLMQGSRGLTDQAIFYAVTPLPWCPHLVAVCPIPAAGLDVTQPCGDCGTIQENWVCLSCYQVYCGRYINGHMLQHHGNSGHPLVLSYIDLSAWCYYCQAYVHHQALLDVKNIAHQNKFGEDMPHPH
Description: Activity against all zinc-dependent HDACs 1 to 11 was assessed by using an acetylated AMC-labeled peptide substrate. The substrate RHKK(Ac)AMC was used for HDAC1, 2, 3, 6, 10 and 11; for HDAC8, the substrate used was RHKAcKAc. […] All assays were based on the AMC-labeled substrate and developer combination.
as §4
Recombinant human HDAC6 (GenBank Accession No. BC069243), full length, MW=159 kDa, was expressed by baculovirus in Sf9 insect cells using an N-terminal GST tag.
as §5
Incubate for 2 hours at 30° C.
HDAC6: 0.3 ng/ul HDAC6 and 50 μM HDAC substrate are in the reaction buffer with 1% DMSO final. Incubate for 1 hours at 30° C.
as §6, §7

[3] = Group 2: Bortezomib 0.5 mg/kg i.v. twice weekly

T1 sequence (Q13547 whole entry): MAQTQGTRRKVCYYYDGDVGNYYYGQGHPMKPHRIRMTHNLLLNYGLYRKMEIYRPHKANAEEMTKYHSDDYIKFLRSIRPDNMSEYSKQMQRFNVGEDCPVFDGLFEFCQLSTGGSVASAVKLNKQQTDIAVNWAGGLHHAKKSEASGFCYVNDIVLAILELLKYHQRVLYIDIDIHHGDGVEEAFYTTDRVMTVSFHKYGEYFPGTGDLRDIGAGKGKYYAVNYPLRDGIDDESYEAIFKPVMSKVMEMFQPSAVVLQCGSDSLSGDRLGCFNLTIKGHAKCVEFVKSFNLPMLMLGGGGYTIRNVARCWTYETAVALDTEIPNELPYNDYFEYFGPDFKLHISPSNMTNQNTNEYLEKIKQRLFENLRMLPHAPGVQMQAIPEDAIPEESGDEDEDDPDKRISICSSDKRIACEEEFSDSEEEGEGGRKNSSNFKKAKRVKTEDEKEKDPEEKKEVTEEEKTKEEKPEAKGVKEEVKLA

SMILES: CC(C)C[C@H](NC(=O)[C@H](Cc1ccccc1)NC(=O)c1cnccn1)B(O)O [Bortezomib]
- Group mean at day 26 (weight, clinical signs) [1, 3]: 98.5
- % T/C value versus vehicle (RPMI8226 tumours; [3]): 67.8%
- Mean tumour volume, Group mean at day 19 (RPMI8226 tumours; [3]): 984 mm³

SMILES: O=C(NO)c1ccc(CN(c2cnccn2)c2cnccn2)cc1 [Example GG, 4-{[Bis(pyrazin-2-yl)amino]methyl}-N-hydroxybenzamide]
- levels of secreted granzyme-B, IFNγ, IL-10, IL-17A, IL-2, IL-6 and TNFα [2]: increased
- weight change during the study ([1]; bortezomib combinations): no significant weight change
- expression of acetylated tubulin in tumour tissue (acetylated tubulin): increased expression
- control of tumour (RPMI8226 tumours; Group 4 and 5 (with bortezomib), after 8 days of treatment): significant control of tumour

SMILES: CNc1cc(-c2ccnc(N(Cc3ccc(C(=O)NO)cc3)c3cnccn3)c2)ccn1 [Example TT, N-hydroxy-4-({[2′-(methylamino)-[4,4′-bipyridine]-2-yl](pyrazin-2-yl)amino}methyl)benzamide]
- IC50 (Human HDAC1): 1000 to 10000 nM
- IC50 (Recombinant human HDAC6): ≤ 500 nM

SMILES: O=C(NO)c1ccc(CN(c2cnccn2)c2cc(-c3ccncc3)ccn2)cc1 [Example UU, 4-[({[4,4′-bipyridine]-2-yl}(pyrazin-2-yl)amino)methyl]-N-hydroxybenzamide]
- IC50 (Human HDAC1): 1000 to 10000 nM
- IC50 (Recombinant human HDAC6): ≤ 500 nM
